From patent US20150143553A1, “Methods And Compositions Comprising A Drosophila Model Of Amyotrophic Lateral Sclerosis” (priority 2013, published 2015)
Where a name gives a salt, the structure may show the parent alone.

What was measured:
[1] = system: Drosophila larvae expressing D169G TDP-43 in motor neurons; assay: Drug screen: rescue of lethality caused by D169G TDP-43 expression in motor neurons (D42 Gal4); assay type: in vivo; details: transgene D169G; 50 μM in fly food
Procedure: (§1) 1200 FDA approved drugs from the Prestwick collection were fed to flies expressing TDP-43 at an initial concentration of 50 μM (as previously described in Chang et al., 2008).
(§2) FDA approved drugs from the Prestwick collection (200 mM in DMSO) are mixed with yeast-cornmeal based food and a bromophenol blue (as a mixing indicator) at a final concentration of 50 μM. Larvae expressing TDP-43 (wild type or mutant, as shown) are raised on drug containing food.
(§3) FDA approved drugs from the Prestwick collection (200 mM in DMSO) were mixed with yeast-cornmeal based food and a bromophenol blue (as a mixing indicator) at a final concentration of 50 μM. Larvae expressing TDP-43 (wt or mutant) were raised on drug containing food.
(§4) Using a Drosophila model of ALS based on TDP-43 that recapitulates several aspects of the disease pathophysiology (33, 35), a drug screen aimed at identifying FDA approved compounds with neuroprotective potential in vivo were designed (FIG. 37A). […] This phenotype was used to screen for drug candidates with therapeutic potential as determined by their ability to rescue pupal lethality and produce viable adults with extended wings (FIG. 37A).

[2] = system: Drosophila larvae expressing D169G TDP-43 in motor neurons; assay: as above; assay type: in vivo; details: transgene D169G; 30 μM in fly food
[3] = system: Drosophila larvae expressing G298S TDP-43 in motor neurons; assay: Drug screen: rescue of lethality caused by G298S TDP-43 expression in motor neurons (D42 Gal4); assay type: in vivo; details: transgene G298S; 30 μM in fly food
From the text: […] Larvae expressing TDP-43 (wild type or mutant, as shown) are raised on drug containing food.
[…] Larvae expressing TDP-43 (wt or mutant) were raised on drug containing food.
as §4
Larvae expressing TDP-43 in motor neurons (D42>TDP-43) were raised on fly food containing different amounts of drug (1, 10 and 25 μM, see Materials and Methods for details) or Dimethyl Sulfoxide (DMSO) as vehicle control (FIG. 37B, C).
UAS TDP-43 males were crossed with D42-Gal4 female virgins on fly food containing either DMSO or pioglitazone. For DMSO controls, the same volume of DMSO as the corresponding drug concentration was added. Bromophenol blue was added to a final concentration of approximately 0.02% to ensure homogeneity. Crosses were made on drug food with 3 female virgins and 2 males in each vial, and were maintained at 25° C. unless noted. The parents were discarded after 5-7 days then the vials were screened for adult progeny with straight wings from day 14 to day 25. All adults were screened for TDP-43 expression by visualizing the YFP tag. Total number of pupae was counted on day 25. Percent survival was calculated using the formula (total number of straight-winged adults/total number of pupae)×100. All experiments were performed in triplicate.

[4] = system: Drosophila larvae expressing N345K TDP-43 in motor neurons; assay: Drug screen: rescue of lethality caused by N345K TDP-43 expression in motor neurons (D42 Gal4); assay type: in vivo; details: transgene N345K; 50 μM in fly food
Procedure: A drug screen aimed at rescuing the adult lethality caused by wild-type or mutant TDP-43 (D169G, G298S, A315T and N345K) overexpression in motor neurons has been performed (FIG. 11). 1200 FDA approved drugs from the Prestwick collection were fed to flies expressing TDP-43 at an initial concentration of 50 μM (as previously described in Chang et al., 2008). This screening strategy has several advantages including: (1) it is performed in vivo, (2) it is based on a robust phenotype (100% adult lethality), (3) it can lead to rapid identification of drugs that are already approved for use in humans and (4) it can inform the future development of small molecules with enhanced neuroprotective capabilities.
as §2, with “food. In the absence of drugs, TDP-43 expression is lethal at the pupal/pharate stage. Drugs that rescued TDP-43 Induced Lethality (anywhere from 1-12 adults) were considered as candidates for future studies.” for “food.”
as §3, with “food. In the absence of drugs, TDP-43 expression was lethal at the pupal/pharate stage. Drugs that rescue TDP-43 induced lethality (anywhere from 1-12 adults) were considered as candidates for future studies.” for “food.”
Using a Drosophila model of ALS based on TDP-43 that recapitulates several aspects of the disease pathophysiology (33, 35), a drug screen aimed at identifying FDA approved compounds with neuroprotective potential in vivo were designed (FIG. 37A). […] This phenotype was used to screen for drug candidates with therapeutic potential as determined by their ability to rescue pupal lethality and produce viable adults with extended wings (FIG. 37A). […]

[5] = system: Drosophila larvae expressing wild-type TDP-43 in motor neurons; assay: Drug screen: rescue of lethality caused by wild-type TDP-43 expression in motor neurons (D42 Gal4); assay type: in vivo; details: for Preliminary rescue result: adults with normal wings: transgene WT2
[6] = system: Drosophila larvae expressing A315T TDP-43 in motor neurons; assay: Drug screen: rescue of lethality caused by A315T TDP-43 expression in motor neurons (D42 Gal4); assay type: in vivo; details: transgene A315T; 50 μM in fly food
Procedure: as §1, §2, §3, §4

[7] = system: cytochrome P450; details: cited from earlier work

## CC(=O)NCCCS(=O)(=O)[O-].CC(=O)NCCCS(=O)(=O)[O-].[Ca+2] [Acamprosate Calcium]
[1]
  Preliminary rescue result: adults with normal wings: 1 Adult Normal Wings Adults

## CC(=O)N[C@@H](CS)C(=O)O [Acetylcysteine]
[2]
  Preliminary rescue result: adults with normal wings: 1 Adults
[3]
  Preliminary rescue result: adults with normal wings: 1 Adults

## CN1C(=O)CCS(=O)(=O)C1c1ccc(Cl)cc1 (stereo not shown) [Chlormezanone]
[4]
  Preliminary rescue result: adults with normal wings: 1 Adult Normal Wings Adults

## Oc1c(Cl)cc(Cl)c2cccnc12 [Chloroxine]
[1]
  Preliminary rescue result: adults with normal wings: 1 Adult Normal Wings Adults

## CCOC(=O)C(C)(C)Oc1ccc(Cl)cc1 [Clofibrate]
[1]
  Preliminary rescue result: adults with normal wings: 1 Adult Normal Wings Adults

## CN(C)CCC=C1c2ccccc2C=Cc2ccccc21 [Cyclobenzaprine HCl]
[1]
  Preliminary rescue result: adults with normal wings: 1 Adult Normal Wings Adults

## CN1CCCN(C(c2ccccc2)c2ccc(Cl)cc2)CC1 (stereo not shown) [Homochlorcyclizine]
[5]; 50 μM in fly food
  Preliminary rescue result: adults with normal wings: 3 Adults Normal Wings,
[6]
  Preliminary rescue result: adults with normal wings: 1 Adult Normal Wings Adults

## CC[C@@H](C(N)=O)N1CCCC1=O [Levetiracetam]
[6]
  Preliminary rescue result: adults with normal wings: 3 Adult Normal Wings Adults

## Cc1cccc(CN2CCN(C(c3ccccc3)c3ccc(Cl)cc3)CC2)c1 (stereo not shown) [Meclozine Dihcl]
[1]
  Preliminary rescue result: adults with normal wings: 6 Adults Normal Wings

## CN(C)c1ccc(O)c2c1C[C@H]1C[C@H]3[C@H](N(C)C)C(O)=C(C(N)=O)C(=O)[C@@]3(O)C(O)=C1C2=O [Minocycline]
[4]
  Preliminary rescue result: adults with normal wings: 1 Adult Normal Wings Adults

## CCCC(C)C1(CC)C(=O)NC(=O)NC1=O (stereo not shown) [Pentobarbital]
[6]
  Preliminary rescue result: adults with normal wings: 3 Adult Normal Wings Adults

## C1CCC(C(CC2CCCCN2)C2CCCCC2)CC1 (stereo not shown) [Perhexiline Maleate]
[4]
  Preliminary rescue result: adults with normal wings: 12 Adults

## CC(C)NC[C@@H](O)COc1ccc(CC(N)=O)cc1 [R-(+)-Atenolol]
[2]
  Preliminary rescue result: adults with normal wings: 1 Adults
[5]; 30 μM in fly food
  Preliminary rescue result: adults with normal wings: 2 Adults

## OCc1cc(C(O)CNCCCCCCOCCCCc2ccccc2)ccc1O (stereo not shown) [Salmeterol]
[2]
  Preliminary rescue result: adults with normal wings: 1 Adult Normal Wings × 2 Adults
[5]; 30 μM in fly food
  Preliminary rescue result: adults with normal wings: 1 Adult Normal Wings × 2 Adults

## C[C@]12Cc3c[nH]nc3C[C@@H]1CC[C@@H]1[C@@H]2CC[C@@]2(C)[C@H]1CC[C@]2(C)O [Stanozolol]
[1]
  Preliminary rescue result: adults with normal wings: 3 Adult Normal Wings Adults

## CCCCNc1ccc(C(=O)OCCN(C)C)cc1 [Tetracaine Hydrochloride]
[6]
  Preliminary rescue result: adults with normal wings: 2 Adult Normal Wings Adults

## Clc1ccc(C(Cn2ccnc2)OCc2ccsc2Cl)c(Cl)c1 (stereo not shown) [Tioconazole]
[6]
  Preliminary rescue result: adults with normal wings: 2 Adults Normal Wings

## Cc1c(C)c2c(c(C)c1O)CCC(C)(COc1ccc(CC3SC(=O)NC3=O)cc1)O2 (stereo not shown) [Troglitazone]
[5]; 50 μM in fly food
  Preliminary rescue result: adults with normal wings: 2 Adults Normal Wings
[5]; transgene wt, primary screening (50 μM), out of 15-20 pupae
  Rescue Effect: 2 adults
[7]
  activity in high-throughput screen for modulators of cytochrome P450: active

## CCCC(CCC)C(=O)O [Valproic Acid]
[5]; 30 μM in fly food
  Preliminary rescue result: adults with normal wings: 2 Adults
[3]
  Preliminary rescue result: adults with normal wings: 1 Adults

## Clc1ccc(Nc2nnc(Cc3ccncc3)c3ccccc23)cc1 [Vatalanib]
[1]
  Preliminary rescue result: adults with normal wings: 1 Adult Normal Wings Adults

## Tyloxapol
[2]
  Preliminary rescue result: adults with normal wings: 1 Adult Normal Wings Adults
